In US20080009418A1, “Selective Inhibitors” (Alchemia LTD., priority 2004, published 2008):

Key:
Human δ-opioid (DOP) = molecular target: T1, Human δ-opioid (DOP) (Homo sapiens, UniProt P41143); test: Radioligand binding, human δ-opioid (DOP) membranes, FlashPlate, [3H]-Bremazocine; conditions: compound at 10 μM; for A1 radioligand binding inhibition: human δ-opioid (DOP) membranes
T1 construct: purchased Perkin Elmer Biosignal
In short: (§1)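 Cloned human receptor membranes were coated onto FlashPlate wells and incubated with radioligand and compound (added from a 0.5 mM DMSO daughter plate) for 1 hour at room temperature in the dark. Scintillation counting gave percent inhibition, with DMSO defining total and reference ligand defining non-specific binding.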

Human κ-Opioid (KOP) = molecular target: T2, Human κ-Opioid (KOP) (Homo sapiens, UniProt P41145); test: Radioligand binding, human κ-opioid (KOP) membranes, filtration, [3H]-Diprenorphine; conditions: compound at 10 μM; for A2 radioligand binding inhibition: human κ-opioid (KOP) membranes
T2 construct: purchased Perkin Elmer Biosignal
T2 sequence (P41145 whole entry): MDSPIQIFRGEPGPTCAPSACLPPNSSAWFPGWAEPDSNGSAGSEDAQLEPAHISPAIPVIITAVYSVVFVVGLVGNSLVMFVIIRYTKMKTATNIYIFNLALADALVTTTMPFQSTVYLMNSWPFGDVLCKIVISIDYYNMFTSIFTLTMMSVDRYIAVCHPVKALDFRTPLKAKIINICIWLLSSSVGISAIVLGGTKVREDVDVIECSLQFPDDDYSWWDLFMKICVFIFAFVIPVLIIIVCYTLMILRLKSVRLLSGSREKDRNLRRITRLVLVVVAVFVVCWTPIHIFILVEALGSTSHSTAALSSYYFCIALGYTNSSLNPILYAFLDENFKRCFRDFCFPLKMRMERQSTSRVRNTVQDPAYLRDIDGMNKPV
In short: (§2)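 Percent inhibition of radioligand binding measured on recombinant human membranes: NK1 with [125I]-Substance P, KOP with [3H]-Diprenorphine. Incubation 1 h at room temperature, then harvest onto 0.3% PEI-soaked filters, cold Tris-HCl pH 7.4 washes and scintillation counting; non-specific binding from reference ligand wells.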

Human Melanocortin (MC3) = molecular target: T3, Human Melanocortin (MC3) (Homo sapiens, UniProt P41968); test: Radioligand binding, human melanocortin MC3 membranes, FlashPlate, [125I]-NDP-αMSH; conditions: compound at 10 μM; for A3 radioligand binding inhibition: human melanocortin MC3 membranes
T3 construct: purchased Perkin Elmer Biosignal
T3 sequence (P41968 whole entry): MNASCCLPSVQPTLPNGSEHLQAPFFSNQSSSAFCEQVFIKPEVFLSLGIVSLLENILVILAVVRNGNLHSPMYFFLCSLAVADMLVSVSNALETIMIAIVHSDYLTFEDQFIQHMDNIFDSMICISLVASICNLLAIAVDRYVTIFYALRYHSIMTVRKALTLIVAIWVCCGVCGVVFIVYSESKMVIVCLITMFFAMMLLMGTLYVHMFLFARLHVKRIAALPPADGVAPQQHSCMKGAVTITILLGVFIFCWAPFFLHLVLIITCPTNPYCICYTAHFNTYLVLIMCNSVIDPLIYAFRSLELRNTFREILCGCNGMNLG
In short: as §1

Human Melanocortin (MC4) = molecular target: T4, Human Melanocortin (MC4) (Homo sapiens, UniProt P32245); test: Radioligand binding, human melanocortin MC4 membranes, FlashPlate, [125I]-NDP-αMSH; conditions: compound at 10 μM; for A4 radioligand binding inhibition: human melanocortin MC4 membranes
T4 construct: purchased Perkin Elmer Biosignal
T4 sequence (P32245 whole entry): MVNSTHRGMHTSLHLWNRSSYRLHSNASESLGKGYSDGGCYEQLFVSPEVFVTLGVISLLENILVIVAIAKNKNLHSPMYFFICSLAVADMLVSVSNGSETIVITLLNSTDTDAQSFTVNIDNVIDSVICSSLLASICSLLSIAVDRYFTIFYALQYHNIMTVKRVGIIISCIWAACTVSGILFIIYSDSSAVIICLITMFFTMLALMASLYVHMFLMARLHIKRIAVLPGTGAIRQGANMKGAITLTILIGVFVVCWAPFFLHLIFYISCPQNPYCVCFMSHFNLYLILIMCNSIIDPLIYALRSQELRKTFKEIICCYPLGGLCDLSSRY
In short: as §1

Human melanocortin (MC5) = molecular target: T5, Human melanocortin (MC5) (Homo sapiens, UniProt P33032); test: Radioligand binding, human melanocortin MC5 membranes, FlashPlate, [125I]-NDP-αMSH; conditions: compound at 10 μM; for A5 radioligand binding inhibition: human melanocortin MC5 membranes
T5 construct: purchased Perkin Elmer Biosignal
T5 sequence (P33032 whole entry): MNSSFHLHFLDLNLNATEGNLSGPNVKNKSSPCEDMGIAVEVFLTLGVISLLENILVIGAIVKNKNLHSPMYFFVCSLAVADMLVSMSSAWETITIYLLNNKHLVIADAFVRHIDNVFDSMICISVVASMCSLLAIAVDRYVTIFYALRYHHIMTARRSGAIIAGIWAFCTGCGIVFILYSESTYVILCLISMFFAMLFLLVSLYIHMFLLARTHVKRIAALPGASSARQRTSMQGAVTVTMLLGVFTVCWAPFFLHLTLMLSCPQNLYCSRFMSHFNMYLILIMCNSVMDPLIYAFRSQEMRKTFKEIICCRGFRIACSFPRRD
In short: as §1

[1] = molecular target: T6, Human melanin-concentrating hormone (MCH1) (Homo sapiens, UniProt Q99705); test: Radioligand binding, human melanin-concentrating hormone MCH1 membranes, FlashPlate, [125I]-S36057; conditions: compound at 10 μM; for A6 radioligand binding inhibition: human MCH1 membranes
T6 construct: purchased Perkin Elmer Biosignal
T6 sequence (Q99705 whole entry): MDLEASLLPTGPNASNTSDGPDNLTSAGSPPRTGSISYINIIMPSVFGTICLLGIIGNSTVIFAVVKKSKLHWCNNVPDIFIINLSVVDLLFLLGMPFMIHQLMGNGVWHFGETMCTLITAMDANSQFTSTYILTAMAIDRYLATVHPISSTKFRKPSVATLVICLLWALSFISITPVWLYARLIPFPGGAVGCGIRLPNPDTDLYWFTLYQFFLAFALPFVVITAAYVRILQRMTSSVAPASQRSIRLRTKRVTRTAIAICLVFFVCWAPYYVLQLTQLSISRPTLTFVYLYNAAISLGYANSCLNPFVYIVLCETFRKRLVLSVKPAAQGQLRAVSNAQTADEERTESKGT
In short: as §1

Human μ-opioid (MOP) = molecular target: T7, Human μ-opioid (MOP) (Homo sapiens, UniProt P35372); test: Radioligand binding, human μ-opioid (MOP) membranes, FlashPlate, [3H]-Naloxone; conditions: compound at 10 μM; for A7 radioligand binding inhibition: human μ-opioid (MOP) membranes
T7 construct: purchased Perkin Elmer Biosignal
T7 sequence (P35372 whole entry): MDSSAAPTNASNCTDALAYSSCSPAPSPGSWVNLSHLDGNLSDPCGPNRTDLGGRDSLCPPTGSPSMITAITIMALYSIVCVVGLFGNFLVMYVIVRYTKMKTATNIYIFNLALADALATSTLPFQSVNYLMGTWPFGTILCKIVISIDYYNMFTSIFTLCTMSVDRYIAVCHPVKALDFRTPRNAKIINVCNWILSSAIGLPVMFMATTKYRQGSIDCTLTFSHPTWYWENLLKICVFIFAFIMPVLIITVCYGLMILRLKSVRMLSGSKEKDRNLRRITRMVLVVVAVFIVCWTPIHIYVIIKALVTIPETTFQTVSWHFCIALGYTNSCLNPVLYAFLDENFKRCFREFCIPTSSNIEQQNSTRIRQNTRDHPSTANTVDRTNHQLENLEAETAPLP
In short: as §1

Human neurokinin (NK1) = molecular target: T8, Human neurokinin (NK1) (Homo sapiens, UniProt P25103); test: Radioligand binding, human neurokinin NK1 membranes, filtration, [125I]-Substance P; conditions: compound at 10 μM; for A8 radioligand binding inhibition: human neurokinin NK1 membranes
T8 construct: purchased Perkin Elmer Biosignal
T8 sequence (P25103 whole entry): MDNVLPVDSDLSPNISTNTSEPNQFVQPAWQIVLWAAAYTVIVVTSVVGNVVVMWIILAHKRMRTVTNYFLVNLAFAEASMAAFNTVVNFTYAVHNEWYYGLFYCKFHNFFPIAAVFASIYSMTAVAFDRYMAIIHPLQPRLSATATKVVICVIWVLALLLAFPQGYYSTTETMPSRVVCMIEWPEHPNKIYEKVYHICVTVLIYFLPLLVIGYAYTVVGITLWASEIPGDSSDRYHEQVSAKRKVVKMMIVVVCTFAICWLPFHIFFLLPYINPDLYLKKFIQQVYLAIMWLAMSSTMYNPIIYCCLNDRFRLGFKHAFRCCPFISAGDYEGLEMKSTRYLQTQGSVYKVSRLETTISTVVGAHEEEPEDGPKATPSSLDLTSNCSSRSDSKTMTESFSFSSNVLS
In short: as §2

[2] = molecular target: T9, Human neuropeptide Y (NPY-Y1) (Homo sapiens, UniProt P25929); test: Radioligand binding, human neuropeptide Y NPY-Y1 membranes, FlashPlate, [125I]-PYY; conditions: compound at 10 μM; for A9 radioligand binding inhibition: human NPY-Y1 membranes
T9 construct: purchased Perkin Elmer Biosignal
T9 sequence (P25929 1-384): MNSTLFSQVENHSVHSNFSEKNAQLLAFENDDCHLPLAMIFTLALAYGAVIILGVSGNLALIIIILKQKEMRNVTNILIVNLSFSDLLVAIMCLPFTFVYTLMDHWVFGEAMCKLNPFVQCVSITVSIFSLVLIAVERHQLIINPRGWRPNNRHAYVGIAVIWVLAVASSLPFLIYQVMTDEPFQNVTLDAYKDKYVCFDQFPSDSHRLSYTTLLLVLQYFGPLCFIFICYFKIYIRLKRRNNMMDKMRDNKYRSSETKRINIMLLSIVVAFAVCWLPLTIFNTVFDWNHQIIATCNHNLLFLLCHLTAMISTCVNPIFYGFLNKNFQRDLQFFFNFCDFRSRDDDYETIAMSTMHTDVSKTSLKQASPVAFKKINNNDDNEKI
In short: as §1

Human opioid (ORL1) = molecular target: T10, Human opioid (ORL1) (Homo sapiens, UniProt P41146); test: Radioligand binding, human opioid ORL1 membranes, FlashPlate, [125I]-Nociceptin; conditions: compound at 10 μM; for A10 radioligand binding inhibition: human ORL1 membranes
T10 construct: purchased Perkin Elmer Biosignal
T10 sequence (P41146 whole entry): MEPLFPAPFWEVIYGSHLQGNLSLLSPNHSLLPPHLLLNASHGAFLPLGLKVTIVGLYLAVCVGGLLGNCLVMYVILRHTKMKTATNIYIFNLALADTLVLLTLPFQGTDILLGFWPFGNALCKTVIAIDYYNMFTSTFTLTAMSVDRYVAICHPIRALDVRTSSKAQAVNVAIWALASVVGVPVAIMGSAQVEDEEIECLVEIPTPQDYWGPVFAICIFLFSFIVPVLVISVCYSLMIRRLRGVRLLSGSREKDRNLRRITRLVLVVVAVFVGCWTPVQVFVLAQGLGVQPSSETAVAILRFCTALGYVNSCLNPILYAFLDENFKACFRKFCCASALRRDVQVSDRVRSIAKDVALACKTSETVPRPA
In short: as §1

Mouse urotensin (mUR2) = molecular target: T11, Mouse urotensin (mUR2) (Mus musculus, UniProt Q8VIH9); test: Radioligand binding, mouse urotensin mUR2 membranes, FlashPlate, [125I]-Urotensin II; conditions: compound at 10 μM; for A11 radioligand binding inhibition: mouse urotensin mUR2 membranes
T11 construct: purchased Perkin Elmer Biosignal
T11 sequence (Q8VIH9 1-385): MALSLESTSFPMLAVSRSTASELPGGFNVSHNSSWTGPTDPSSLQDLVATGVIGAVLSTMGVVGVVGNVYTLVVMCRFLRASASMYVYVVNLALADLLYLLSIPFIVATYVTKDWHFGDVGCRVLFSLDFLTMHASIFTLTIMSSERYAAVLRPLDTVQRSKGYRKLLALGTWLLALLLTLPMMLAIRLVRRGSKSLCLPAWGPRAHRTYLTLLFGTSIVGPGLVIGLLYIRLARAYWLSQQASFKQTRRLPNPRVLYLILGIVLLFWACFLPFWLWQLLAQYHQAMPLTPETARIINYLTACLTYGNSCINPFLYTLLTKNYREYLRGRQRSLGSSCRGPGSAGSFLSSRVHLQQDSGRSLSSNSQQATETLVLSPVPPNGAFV
In short: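 Cloned mouse urotensin (mUR2) receptor membranes from Perkin Elmer Biosignal were immobilized in FlashPlate microplates using a proprietary coating. Each well got 19.5 μl buffer, then 0.5 μl of DMSO, reference ligand, or compound. Adding 5 μl of [125I]-Urotensin II, diluted to 5× final concentration in binding buffer, started binding. Plates were sealed with TopSeal-A and incubated 1 hour at room temperature in the dark. Wells were counted for 30 seconds each on a TopCount after a 60-second delay, and percentage inhibition was calculated.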

T1 sequence (P41143 whole entry): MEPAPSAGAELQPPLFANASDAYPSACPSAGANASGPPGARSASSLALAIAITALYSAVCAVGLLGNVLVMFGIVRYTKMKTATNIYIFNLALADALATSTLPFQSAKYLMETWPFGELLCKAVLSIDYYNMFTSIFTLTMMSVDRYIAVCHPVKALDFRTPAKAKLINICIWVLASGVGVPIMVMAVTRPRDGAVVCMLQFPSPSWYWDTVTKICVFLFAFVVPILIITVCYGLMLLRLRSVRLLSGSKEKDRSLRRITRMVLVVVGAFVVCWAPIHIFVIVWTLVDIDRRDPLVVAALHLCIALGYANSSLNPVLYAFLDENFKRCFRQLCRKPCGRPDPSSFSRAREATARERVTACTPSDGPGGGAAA

Question: Which results are given for `COC[C@H]1OC(OCCc2ccccc2)[C@H](NC(=O)CCNC(=N)N)[C@@H](OCc2ccccc2)[C@@H]1O` (stereo partly drawn) [compound 46]?
Answer: A1 radioligand binding inhibition (Human δ-opioid (DOP)): − (“−” indicates less than 50% inhibition at 10 μM); A2 radioligand binding inhibition (Human κ-Opioid (KOP)): − (“−” indicates less than 50% inhibition at 10 μM); A3 radioligand binding inhibition (Human Melanocortin (MC3)): − (“−” indicates less than 50% inhibition at 10 μM); A4 radioligand binding inhibition (Human Melanocortin (MC4)): − (“−” indicates less than 50% inhibition at 10 μM); A5 radioligand binding inhibition (Human melanocortin (MC5)): − (“−” indicates less than 50% inhibition at 10 μM); A6 radioligand binding inhibition [1]: − (“−” indicates less than 50% inhibition at 10 μM); A7 radioligand binding inhibition (Human μ-opioid (MOP)): − (“−” indicates less than 50% inhibition at 10 μM); A8 radioligand binding inhibition (Human neurokinin (NK1)): + (“+” indicates greater than 50% inhibition at 10 μM); A9 radioligand binding inhibition [2]: − (“−” indicates less than 50% inhibition at 10 μM); A10 radioligand binding inhibition (Human opioid (ORL1)): − (“−” indicates less than 50% inhibition at 10 μM); A11 radioligand binding inhibition (Mouse urotensin (mUR2)): − (“−” indicates less than 50% inhibition at 10 μM)

Question: `COC[C@H]1OC(OCc2ccccc2)[C@H](NC(=O)CCCN)[C@@H](OCc2ccc3ccccc3c2)[C@@H]1O` (stereo partly drawn) [compound 26] was tested. Which “A1 radioligand binding inhibition” value (Human δ-opioid (DOP)) did it give?
Answer: − (“−” indicates less than 50% inhibition at 10 μM)

Question: What about the “A2 radioligand binding inhibition” value (Human κ-Opioid (KOP)) of the same compound?
Answer: − (“−” indicates less than 50% inhibition at 10 μM)

Question: What about the “A3 radioligand binding inhibition” value (Human Melanocortin (MC3)) of the same compound?
Answer: − (“−” indicates less than 50% inhibition at 10 μM)

Question: What about the “A4 radioligand binding inhibition” value (Human Melanocortin (MC4)) of the same compound?
Answer: − (“−” indicates less than 50% inhibition at 10 μM)

Question: And the “A5 radioligand binding inhibition” value (Human melanocortin (MC5))?
Answer: − (“−” indicates less than 50% inhibition at 10 μM)

Question: And the “A6 radioligand binding inhibition” value [1]?
Answer: − (“−” indicates less than 50% inhibition at 10 μM)

Question: What about the “A7 radioligand binding inhibition” value (Human μ-opioid (MOP)) of the same compound?
Answer: − (“−” indicates less than 50% inhibition at 10 μM)

Question: And the “A8 radioligand binding inhibition” value (Human neurokinin (NK1))?
Answer: + (“+” indicates greater than 50% inhibition at 10 μM)

Question: And the “A9 radioligand binding inhibition” value [2]?
Answer: − (“−” indicates less than 50% inhibition at 10 μM)

Question: And the “A10 radioligand binding inhibition” value (Human opioid (ORL1))?
Answer: − (“−” indicates less than 50% inhibition at 10 μM)

Question: And the “A11 radioligand binding inhibition” value (Mouse urotensin (mUR2))?
Answer: − (“−” indicates less than 50% inhibition at 10 μM)

Question: What does the source list for `CSC1OC(COCc2ccc3ccccc3c2)C(O)C(OCc2ccc3ccccc3c2)C1NC(=O)CCCNC(=N)N` (stereo not drawn) [compound 321]?
Answer: A1: inhibition of radioligand binding, human δ-opioid (DOP) (Human δ-opioid (DOP); [3H]-Bremazocine): − (“−” indicates less than 50% inhibition at 10 μM); A2: inhibition of radioligand binding, human κ-opioid (KOP) (Human κ-Opioid (KOP); [3H]-Diprenorphine): − (“−” indicates less than 50% inhibition at 10 μM); A3: inhibition of radioligand binding, human melanocortin (MC3) (Human Melanocortin (MC3); [125I]-NDP-αMSH): + (“+” indicates greater than 50% inhibition at 10 μM); A4: inhibition of radioligand binding, human melanocortin (MC4) (Human Melanocortin (MC4); [125I]-NDP-αMSH): + (“+” indicates greater than 50% inhibition at 10 μM); A5: inhibition of radioligand binding, human melanocortin (MC5) (Human melanocortin (MC5); [125I]-NDP-αMSH): + (“+” indicates greater than 50% inhibition at 10 μM); A6: inhibition of radioligand binding, human melanin-concentrating hormone (MCH1) ([1]; [125I]-S36057): + (“+” indicates greater than 50% inhibition at 10 μM); A7: inhibition of radioligand binding, human μ-opioid (MOP) (Human μ-opioid (MOP); [3H]-Naloxone): − (“−” indicates less than 50% inhibition at 10 μM); A8: inhibition of radioligand binding, human neurokinin (NK1) (Human neurokinin (NK1); [125I]-Substance P): + (“+” indicates greater than 50% inhibition at 10 μM); A9: inhibition of radioligand binding, human neuropeptide Y (NPY-Y1) ([2]; [125I]-PYY): − (“−” indicates less than 50% inhibition at 10 μM); A10: inhibition of radioligand binding, human opioid (ORL1) (Human opioid (ORL1); [125I]-Nociceptin): − (“−” indicates less than 50% inhibition at 10 μM); A11: inhibition of radioligand binding, mouse urotensin (mUR2) (Mouse urotensin (mUR2); [125I]-Urotensin II): − (“−” indicates less than 50% inhibition at 10 μM)
